Experimental data: ChEMBL document CHEMBL1255305, “Affinity of doripenem and comparators to penicillin-binding proteins in Escherichia coli and Pseudomonas aeruginosa” (Antimicrob Agents Chemother, 2008)
In brackets after ≈: the same amount, converted by molar mass. Activity calls are given as the source filed them. No cut-off for these calls is given here.

Legend:
[1] = Inhibition of Bocillin FL binding to PBP6 in Escherichia coli MC4100 membranes; assay type: cell membranes
[2] = Inhibition of Bocillin FL binding to PBP3 in Pseudomonas aeruginosa 27853 membranes
[3] = Inhibition of Bocillin FL binding to PBP1B in Pseudomonas aeruginosa 27853 membranes
[4] = Inhibition of Bocillin FL binding to PBP1A in Pseudomonas aeruginosa 27853 membranes
[5] = Inhibition of Bocillin FL binding to PBP4 in Escherichia coli MC4100 membranes; assay type: cell membranes
[6] = Inhibition of Bocillin FL binding to PBP5/6 in Pseudomonas aeruginosa PAO1 membranes
[7] = Inhibition of Bocillin FL binding to PBP1B in Escherichia coli MC4100 membranes; assay type: cell membranes
[8] = Inhibition of Bocillin FL binding to PBP2 in Escherichia coli MC4100 membranes; assay type: cell membranes
[9] = Inhibition of Bocillin FL binding to PBP4 in Pseudomonas aeruginosa 27853 membranes
[10] = Inhibition of Bocillin FL binding to PBP3 in Pseudomonas aeruginosa PAO1 membranes
[11] = Inhibition of Bocillin FL binding to PBP1A in Escherichia coli MC4100 membranes; assay type: cell membranes
[12] = Inhibition of Bocillin FL binding to PBP5 in Escherichia coli MC4100 membranes; assay type: cell membranes
[13] = Inhibition of Bocillin FL binding to PBP5/6 in Pseudomonas aeruginosa 27853 membranes
[14] = Inhibition of Bocillin FL binding to PBP2 in Pseudomonas aeruginosa PAO1 membranes
[15] = Inhibition of Bocillin FL binding to PBP3 in Escherichia coli MC4100 membranes; assay type: cell membranes
[16] = Inhibition of Bocillin FL binding to PBP1B in Pseudomonas aeruginosa PAO1 membranes
[17] = Inhibition of Bocillin FL binding to PBP2 in Pseudomonas aeruginosa 27853 membranes
[18] = Inhibition of Bocillin FL binding to PBP1A in Pseudomonas aeruginosa PAO1 membranes
[19] = Inhibition of Bocillin FL binding to PBP4 in Pseudomonas aeruginosa PAO1 membranes
[20] = system: Pseudomonas aeruginosa; assay: Antimicrobial activity against Pseudomonas aeruginosa PAO1 by CLSI protocol based broth microdilution method; assay type: functional
[21] = system: Escherichia coli; assay: Antimicrobial activity against Escherichia coli MC4100 by CLSI protocol based broth microdilution method; assay type: functional
[22] = system: Pseudomonas aeruginosa; assay: Antimicrobial activity against Pseudomonas aeruginosa 27853 by CLSI protocol based broth microdilution method; assay type: functional
[23] = system: Pseudomonas aeruginosa; assay: Induction of morphological changes in Pseudomonas aeruginosa 27853 assessed as increase in cell length at antimicrobial MIC after 240 mins by microscopy; assay type: functional, organism-based
[24] = system: Escherichia coli; assay: Induction of morphological changes in Escherichia coli MC4100 assessed as induction of sphere formation at antimicrobial MIC after 4 hrs by microscopy; assay type: functional, organism-based
[25] = system: Pseudomonas aeruginosa; assay: Induction of morphological changes in Pseudomonas aeruginosa 27853 assessed as induction of sphere formation at antimicrobial MIC after 60 mins by microscopy; assay type: functional, organism-based
[26] = system: Pseudomonas aeruginosa; assay: Induction of morphological changes in Pseudomonas aeruginosa 27853 assessed as induction of sphere formation at antimicrobial MIC after 240 mins by microscopy; assay type: functional, organism-based
[27] = system: Pseudomonas aeruginosa; assay: Induction of morphological changes in Pseudomonas aeruginosa 27853 assessed as increase in cell length at antimicrobial MIC after 60 mins by microscopy; assay type: functional, organism-based

| Compound | IC50 [1] | IC50 [2] | IC50 [3] | IC50 [4] | IC50 [5] | IC50 [6] | IC50 [7] | IC50 [8] | IC50 [9] | IC50 [10] | IC50 [11] | IC50 [12] | IC50 [13] | IC50 [14] | IC50 [15] | IC50 [16] | IC50 [17] | IC50 [18] | IC50 [19] | MIC [20] | other results |
| --- | --- | --- | --- | --- | --- | --- | --- | --- | --- | --- | --- | --- | --- | --- | --- | --- | --- | --- | --- | --- | --- |
| C[C@H]1[C@H](NC(=O)/C(=N\OC(C)(C)C(=O)O)c2csc(N)n2)C(=O)N1S(=O)(=O)O [AZTREONAM] | > 8 µg/mL | < 0.02 µg/mL | 2 µg/mL (≈ 4.59 µM) | 2 µg/mL (≈ 4.59 µM) | > 8 µg/mL | > 16 µg/mL | > 8 µg/mL | > 8000 ng/mL | > 4 µg/mL | 0.03 µg/mL (≈ 0.0689 µM) | > 8 µg/mL | > 8 µg/mL | > 4 µg/mL | 16 µg/mL (≈ 36.7 µM) | 0.03 µg/mL (≈ 0.0689 µM) | 2 µg/mL (≈ 4.59 µM) | 4 µg/mL (≈ 9.19 µM) | 2 µg/mL (≈ 4.59 µM) | 16000 ng/mL (≈ 36.7 µM) |  |  |
| CC(C)(O/N=C(\C(=O)N[C@@H]1C(=O)N2C(C(=O)[O-])=C(C[n+]3ccccc3)CS[C@H]12)c1csc(N)n1)C(=O)O [CEFTAZIDIME] | > 4 µg/mL | 0.1 µg/mL (≈ 0.183 µM) | 1.6 µg/mL (≈ 2.93 µM) | 0.3 µg/mL (≈ 0.549 µM) | > 4 µg/mL | > 32 µg/mL | 1.1 µg/mL (≈ 2.01 µM) | 4000 ng/mL (≈ 7.32 µM) | 2 µg/mL (≈ 3.66 µM) | 0.1 µg/mL (≈ 0.183 µM) | 1.1 µg/mL (≈ 2.01 µM) | > 4 µg/mL | > 4 µg/mL | > 32 µg/mL | 0.07 µg/mL (≈ 0.128 µM) | 3 µg/mL (≈ 5.49 µM) | 4 µg/mL (≈ 7.32 µM) | 0.2 µg/mL (≈ 0.366 µM) | 2000 ng/mL (≈ 3.66 µM) | 1 µg/mL (≈ 1.83 µM) | MIC [21]: 0.12 µg/mL (≈ 0.22 µM); MIC [22]: 1 µg/mL (≈ 1.83 µM) |
| C[C@@H](O)[C@H]1C(=O)N2C(C(=O)O)=C(S[C@@H]3CN[C@H](CNS(N)(=O)=O)C3)[C@H](C)[C@H]12 [DORIPENEM] | 1 µg/mL (≈ 2.38 µM) | 0.06 µg/mL (≈ 0.143 µM) | 0.6 µg/mL (≈ 1.43 µM) | 0.8 µg/mL (≈ 1.9 µM) | 0.02 µg/mL (≈ 0.0476 µM) | 8 µg/mL (≈ 19 µM) | 1.2 µg/mL (≈ 2.85 µM) | 8 ng/mL (≈ 0.019 µM) | < 0.008 µg/mL | 0.07 µg/mL (≈ 0.166 µM) | 1.2 µg/mL (≈ 2.85 µM) | 4 µg/mL (≈ 9.51 µM) | > 4 µg/mL | 0.06 µg/mL (≈ 0.143 µM) | 2 µg/mL (≈ 4.76 µM) | 0.6 µg/mL (≈ 1.43 µM) | 0.04 µg/mL (≈ 0.0951 µM) | 0.5 µg/mL (≈ 1.19 µM) | 8 ng/mL (≈ 0.019 µM) | 0.25 µg/mL (≈ 0.595 µM) | Activity [23]: Active; Activity [24]: Active; MIC [21]: 0.03 µg/mL (≈ 0.0713 µM); MIC [22]: 0.25 µg/mL (≈ 0.595 µM); Activity [25]: Active |
| C[C@@H](O)[C@H]1C(=O)N2C(C(=O)O)=C(SCCNC=N)C[C@H]12 [IMIPENEM ANHYDROUS] | 0.1 µg/mL (≈ 0.334 µM) | 0.3 µg/mL (≈ 1 µM) | 0.1 µg/mL (≈ 0.334 µM) | 0.1 µg/mL (≈ 0.334 µM) | 0.01 µg/mL (≈ 0.0334 µM) | 2 µg/mL (≈ 6.68 µM) | 0.4 µg/mL (≈ 1.34 µM) | 8 ng/mL (≈ 0.0267 µM) | < 0.008 µg/mL | 0.09 µg/mL (≈ 0.301 µM) | 0.5 µg/mL (≈ 1.67 µM) | 0.4 µg/mL (≈ 1.34 µM) | 1 µg/mL (≈ 3.34 µM) | 0.1 µg/mL (≈ 0.334 µM) | 8 µg/mL (≈ 26.7 µM) | 0.2 µg/mL (≈ 0.668 µM) | 0.1 µg/mL (≈ 0.334 µM) | 0.1 µg/mL (≈ 0.334 µM) | 8 ng/mL (≈ 0.0267 µM) | 1 µg/mL (≈ 3.34 µM) | Activity [26]: Active; Activity [24]: Active; MIC [21]: 0.25 µg/mL (≈ 0.835 µM); MIC [22]: 2 µg/mL (≈ 6.68 µM) |
| C[C@@H](O)[C@H]1C(=O)N2C(C(=O)O)=C(S[C@@H]3CN[C@H](C(=O)N(C)C)C3)[C@H](C)[C@H]12 [MEROPENEM] | 0.03 µg/mL (≈ 0.0782 µM) | 0.08 µg/mL (≈ 0.209 µM) | 0.6 µg/mL (≈ 1.56 µM) | 0.6 µg/mL (≈ 1.56 µM) | 0.02 µg/mL (≈ 0.0522 µM) | 16 µg/mL (≈ 41.7 µM) | 1.3 µg/mL (≈ 3.39 µM) | 8 ng/mL (≈ 0.0209 µM) | 0.02 µg/mL (≈ 0.0522 µM) | 0.08 µg/mL (≈ 0.209 µM) | 1.7 µg/mL (≈ 4.43 µM) | 4 µg/mL (≈ 10.4 µM) | > 4 µg/mL | 0.05 µg/mL (≈ 0.13 µM) | 0.6 µg/mL (≈ 1.56 µM) | 0.5 µg/mL (≈ 1.3 µM) | 0.06 µg/mL (≈ 0.156 µM) | 0.5 µg/mL (≈ 1.3 µM) | 8 ng/mL (≈ 0.0209 µM) | 0.5 µg/mL (≈ 1.3 µM) | Activity [23]: Active; Activity [24]: Active; MIC [21]: 0.03 µg/mL (≈ 0.0782 µM); MIC [22]: 0.25 µg/mL (≈ 0.652 µM); Activity [27]: Active |
